# Assay results published in patent publication US20260176276A1, “COMPOUND FOR REGULATING AND CONTROLLING ACTIVITY OF 15-PGDH AND PREPARATION METHOD THEREFOR” (SCINNOHUB PHARMACEUTICAL CO., LTD, priority 2022, published 2026).
# Target: T1, 15-PGDH (Homo sapiens, UniProt P15428)
# T1 construct: purchased Sino Biological Inc. 11205-H08E
# T1 sequence (P15428 1-266): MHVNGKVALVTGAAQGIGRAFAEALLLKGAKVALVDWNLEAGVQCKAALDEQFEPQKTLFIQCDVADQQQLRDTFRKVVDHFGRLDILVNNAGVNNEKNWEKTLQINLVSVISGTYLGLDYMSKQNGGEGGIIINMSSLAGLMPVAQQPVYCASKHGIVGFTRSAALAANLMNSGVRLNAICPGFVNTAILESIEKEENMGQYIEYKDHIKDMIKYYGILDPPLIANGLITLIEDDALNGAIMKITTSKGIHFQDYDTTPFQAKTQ
# Assay: Detection of activity of 15-PGDH kinase (enzyme inhibition, fluorescence slope)
# Assay type: biochemical
# Details: inhibitory activity against 15-PGDH enzyme; substrates PGF2α and β-NAD; fluorescence Ex/Em=340/450
# Description: [table] • a. A solution of pH 7.5 containing 50 mM Tris-HCl, 0.01% Tween 20 was prepared with ultrapure water as a reaction buffer; • b. A 10 mM mother liquor of the compound to be tested was prepared with DMSO, and then the reaction buffer was used to dilute the mother liquor of the compound to be tested to obtain solution 1 of the compound to be tested at a concentration of 4000 nM, and then the solution 1 of the compound to be tested was serially diluted into solutions 2-10 of the compound to be tested at 9 concentrations with a gradient difference of three-fold. 5 μL of each of solutions 1-10 of the compound to be tested was taken and added into a 384-well plate as test wells; • c. 5 μL of the reaction buffer was added to the 384-well plate as positive control and blank control wells; • d. The reaction buffer was used to prepare a 15-PGDH protein solution at a concentration of 5 ng/μL, 5 μL of the 15-PGDH protein solution was taken and added to the test wells and positive control wells, and 5 μL of the reaction buffer was added to the blank control wells at the same time, then the plate was centrifuged at 2000 rpm for 30 seconds; • e. The reaction buffer was used to prepare 5 mM R-NAD and 2 mM PGF2α, respectively, which were mixed at 1:1 by volume to obtain a substrate mixture, 10 μL of the substrate mixture was taken and added to the test wells, positive control wells and blank control wells to start the reaction; • f. The fluorescence signal value (Ex/Em=340/450) of each well was detected continuously by using a multifunctional microplate reader. • a) Continuous fluorescence signal values were analyzed by using the “kinetic calculations-slope calculation method” in the PHERAstar Data analysis software to obtain the slope of each test well; • b) The inhibition rate % was calculated by using the following formula: [formula] • c) Calculation of IC50 and plotting of inhibition rate-dose curves: IC50 values were calculated by fitting compound concentrations and corresponding inhibition rates with nonlinear regression (dose response-variable slope) via using GraphPad Prism 6.0. The formula is shown below: [formula] wherein X is a log value of a concentration of the compound, and Y is inhibition rate %.
row,SMILES,IC50
1,"CCCC[S+]([O-])c1sc2nc(-c3ccccc3)n3ccnc3c2c1N (stereo not drawn) [Example 1, 8-(butylsulfinyl)-5-phenylimidazo[1,2-c]thieno[3,2-e]pyrimidin-9-amine]",4 to 10 nM
2,"CCCC[S+]([O-])c1sc2nc(-c3ccccc3)n3c(C)nnc3c2c1N (stereo not drawn) [Example 4, 8-(butylsulfinyl)-3-methyl-5-phenylthieno[3,2-e][1,2,4]triazolo[4,3-c]pyrimidin-9-amine]",4 to 10 nM
3,CCCC[S+]([O-])c1sc2nc(-c3ccccc3)n3cc(C)nc3c2c1N (stereo not drawn) [Example 5],< 1.5 nM
4,CCCC[S+]([O-])c1sc2nc(-c3ccccc3)n3cc(C(F)(F)F)nc3c2c1N (stereo not drawn) [Example 6],4 to 10 nM
5,Nc1c([S+]([O-])C2CCCC2)sc2nc(-c3ccccc3)n3ccnc3c12 (stereo not drawn) [Example 7],4 to 10 nM
6,Nc1c([S+]([O-])C2CCCCC2)sc2nc(-c3ccccc3)n3ccnc3c12 (stereo not drawn) [Example 8],4 to 10 nM
7,Nc1c([S+]([O-])C2COC2)sc2nc(-c3ccccc3)n3ccnc3c12 (stereo not drawn) [Example 9],10 to 15 nM
8,CCCC[S+]([O-])c1sc2nc(-c3cnccn3)n3ccnc3c2c1N (stereo not drawn) [Example 10],4 to 10 nM
9,CCCC[S+]([O-])c1sc2nc(-c3nccs3)n3ccnc3c2c1N (stereo not drawn) [Example 11],1.5 to 4 nM
10,CCCC[S+]([O-])c1sc2nc(-c3ncccn3)n3ccnc3c2c1N (stereo not drawn) [Example 12],1.5 to 4 nM
11,CCCC[S+]([O-])c1sc2nc(-c3cccnc3)n3ccnc3c2c1N (stereo not drawn) [Example 13],< 1.5 nM
12,CCCC[S+]([O-])c1sc2nc(-c3ccsc3)n3ccnc3c2c1N (stereo not drawn) [Example 14],1.5 to 4 nM
13,CCCC[S+]([O-])c1sc2nc(-c3cnn(C)c3)n3ccnc3c2c1N (stereo not drawn) [Example 15],1.5 to 4 nM
14,CCCC[S+]([O-])c1sc2nc(-c3ccncc3)n3ccnc3c2c1N (stereo not drawn) [Example 16],1.5 to 4 nM

# Next, values leading:
row,IC50,SMILES
1,4 to 10 nM,CCCC[S+]([O-])c1sc2nc(-c3ccc(N4CCOCC4)nc3)n3ccnc3c2c1N (stereo not drawn) [Example 17]
2,10 to 15 nM,CCCC[S+]([O-])c1sc2nc(-c3ccccc3)n3cnnc3c2c1N (stereo not drawn) [Example 18]
3,1.5 to 4 nM,CCCC[S+]([O-])c1sc2nc(-c3ccccc3)n3c(C)cnc3c2c1N (stereo not drawn) [Example 19]
4,15 to 30 nM,CCCC[S+]([O-])c1sc2nc(-c3ccccc3)n3ccnc3c2c1C (stereo not drawn) [Example 20]
5,1.5 to 4 nM,CCCC[S+]([O-])c1sc2nc(-c3ccc4c(c3)CN(C)C4=O)n3ccnc3c2c1N (stereo not drawn) [Example 21]
6,1.5 to 4 nM,CCCC[S+]([O-])c1sc2nc(-c3ccc(C(=O)O)cc3)n3ccnc3c2c1N (stereo not drawn) [Example 22]
7,10 to 15 nM,Nc1c([S+]([O-])Cc2ccccc2)sc2nc(-c3ccccc3)n3ccnc3c12 (stereo not drawn) [Example 23]
8,4 to 10 nM,CCC(C)C[S+]([O-])c1sc2nc(-c3ccccc3)n3ccnc3c2c1N (stereo not drawn) [Example 24]
9,> 30 nM,CC(C)C[S+]([O-])c1sc2nc(-c3ccccc3)n3ccnc3c2c1N (stereo not drawn) [Example 25]
10,10 to 15 nM,CC(C)(C)[S+]([O-])c1sc2nc(-c3ccccc3)n3ccnc3c2c1N (stereo not drawn) [Example 26]
